# Measurements taken from US20140058103A1, “Inhibitors of PI3K-Delta and Methods of Their Use and Manufacture” (Exelixis, Inc., priority 2010, published 2014).
# Target: PI3K delta (Homo sapiens, UniProt O00329)
# Assay: Luciferase-coupled chemiluminescence kinase assay (ATP consumption, KinaseGlo)
# Assay type: biochemical
# Summary of the method: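 Compound, kinase and ATP (≤ KM) reacted 2 h at ambient temperature, then remaining ATP quantified with luciferase-luciferin (KinaseGlo) luminescence as percent consumed.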
# Sequence of PI3K delta (O00329 whole entry): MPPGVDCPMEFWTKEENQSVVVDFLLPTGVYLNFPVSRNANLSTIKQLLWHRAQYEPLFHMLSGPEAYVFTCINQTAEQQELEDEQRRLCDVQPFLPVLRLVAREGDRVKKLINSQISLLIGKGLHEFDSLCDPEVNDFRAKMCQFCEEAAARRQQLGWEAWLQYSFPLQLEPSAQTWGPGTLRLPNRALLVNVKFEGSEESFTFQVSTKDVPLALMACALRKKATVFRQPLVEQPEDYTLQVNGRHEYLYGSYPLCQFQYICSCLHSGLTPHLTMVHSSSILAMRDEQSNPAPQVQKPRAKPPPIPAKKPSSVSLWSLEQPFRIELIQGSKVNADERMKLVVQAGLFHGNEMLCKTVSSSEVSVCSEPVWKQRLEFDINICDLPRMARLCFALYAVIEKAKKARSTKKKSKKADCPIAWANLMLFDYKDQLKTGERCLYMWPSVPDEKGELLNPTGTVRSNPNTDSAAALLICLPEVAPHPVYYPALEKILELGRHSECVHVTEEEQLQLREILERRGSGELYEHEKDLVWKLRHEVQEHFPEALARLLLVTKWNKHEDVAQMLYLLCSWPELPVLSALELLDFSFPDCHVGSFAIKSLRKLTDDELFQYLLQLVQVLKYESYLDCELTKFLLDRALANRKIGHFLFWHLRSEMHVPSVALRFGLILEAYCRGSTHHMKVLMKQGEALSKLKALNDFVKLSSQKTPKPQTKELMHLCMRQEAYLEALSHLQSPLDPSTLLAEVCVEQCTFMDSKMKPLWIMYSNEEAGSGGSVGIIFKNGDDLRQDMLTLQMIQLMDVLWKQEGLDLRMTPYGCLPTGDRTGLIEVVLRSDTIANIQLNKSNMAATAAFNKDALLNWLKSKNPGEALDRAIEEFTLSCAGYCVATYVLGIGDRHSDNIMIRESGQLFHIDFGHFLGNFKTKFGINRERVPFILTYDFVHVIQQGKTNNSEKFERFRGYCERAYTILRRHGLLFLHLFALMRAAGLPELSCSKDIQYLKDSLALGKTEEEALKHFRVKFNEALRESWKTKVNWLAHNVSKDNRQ
# Sequence of PI3K delta (P27986 whole entry partner): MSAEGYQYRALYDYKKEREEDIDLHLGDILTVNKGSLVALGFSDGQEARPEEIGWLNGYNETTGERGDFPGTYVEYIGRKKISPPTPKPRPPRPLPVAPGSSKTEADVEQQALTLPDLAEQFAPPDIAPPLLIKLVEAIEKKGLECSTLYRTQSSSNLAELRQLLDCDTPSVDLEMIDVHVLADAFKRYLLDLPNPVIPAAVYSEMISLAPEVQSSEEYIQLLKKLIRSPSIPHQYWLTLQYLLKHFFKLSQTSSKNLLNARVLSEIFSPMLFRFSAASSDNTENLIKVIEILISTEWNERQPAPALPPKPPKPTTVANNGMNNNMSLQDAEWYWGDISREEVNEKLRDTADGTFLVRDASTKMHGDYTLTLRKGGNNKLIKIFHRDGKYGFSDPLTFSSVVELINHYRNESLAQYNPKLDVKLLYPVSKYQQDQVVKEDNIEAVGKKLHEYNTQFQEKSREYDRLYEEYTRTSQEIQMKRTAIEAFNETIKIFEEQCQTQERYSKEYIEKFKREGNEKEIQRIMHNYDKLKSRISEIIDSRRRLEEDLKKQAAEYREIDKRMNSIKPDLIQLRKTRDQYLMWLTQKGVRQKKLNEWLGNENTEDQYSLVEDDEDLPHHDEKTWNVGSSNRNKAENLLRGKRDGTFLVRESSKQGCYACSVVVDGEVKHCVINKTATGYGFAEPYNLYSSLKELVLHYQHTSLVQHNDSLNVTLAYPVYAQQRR
row,SMILES,IC50 [nM]
1,"Cc1[nH]ncc1-c1nc2c(N3CCC4(CC3)C(=O)Nc3ccccc34)ncnc2n1C [Compound 247, 1′-[9-methyl-8-(5-methyl-1H-pyrazol-4-yl)-9H-purin-6-yl]spiro[indole-3,4′-piperidin]-2(1H)-one]",< 50
2,"Cn1c(C(=O)NCc2cccc(F)c2)nc2c(N3CCC(n4c(=O)[nH]c5ccccc54)CC3)ncnc21 [Compound 58, N-[(3-fluorophenyl)methyl]-9-methyl-6-[4-(2-oxo-2,3-dihydro-1H-benzimidazol-1-yl)piperidin-1-yl]-9H-purine-8-carboxamide]",50 to 250
3,"Cn1c(C(=O)NCc2ccco2)nc2c(N3CCC(n4c(=O)[nH]c5ccccc54)CC3)ncnc21 [Compound 46, N-(furan-2-ylmethyl)-9-methyl-6-[4-(2-oxo-2,3-dihydro-1H-benzimidazol-1-yl)piperidin-1-yl]-9H-purine-8-carboxamide]",50 to 250
4,"CCn1c(C(=O)NCC(C)C)nc2c(N3CCC(n4c(=O)[nH]c5ccccc54)CC3)ncnc21 [Compound 158, 9-ethyl-N-(2-methylpropyl)-6-[4-(2-oxo-2,3-dihydro-1H-benzimidazol-1-yl)piperidin-1-yl]-9H-purine-8-carboxamide]",< 50
5,"Cc1c(-c2nc3c(N4CCC5(CC4)C(=O)Nc4ccccc45)ncnc3n2C)cnn1C [Compound 393, 1′-(8-(1,5-dimethyl-1H-pyrazol-4-yl)-9-methyl-9H-purin-6-yl)spiro[indoline-3,4′-piperidin]-2-one]",500 to 1500
6,"Cn1cc(-c2nc3c(N4CCN(c5ccccc5CNS(=O)(=O)c5ccc6ccccc6c5)CC4)ncnc3n2C)cn1 [Compound 364, N-[(2-{4-[9-methyl-8-(1-methyl-1H-pyrazol-4-yl)-9H-purin-6-yl]piperazin-1-yl}phenyl)methyl]naphthalene-2-sulfonamide]",500 to 1500
7,"CNc1ccc(-c2nc3c(N4CCC(n5c(=O)[nH]c6ncccc65)CC4)ncnc3n2C)cn1 [Compound 354, 1-(1-{9-methyl-8-[6-(methylamino)pyridin-3-yl]-9H-purin-6-yl}piperidin-4-yl)-1,3-dihydro-2H-imidazo[4,5-b]pyridin-2-one]",< 50
8,"COc1ccc(-c2nc3c(N4CCC(n5c(=O)[nH]c6ccccc65)CC4)ncnc3n2C)cn1 [Compound 299, 1-(1-{9-methyl-8-[6-(methyloxy)pyridin-3-yl]-9H-purin-6-yl}piperidin-4-yl)-1,3-dihydro-2H-benzimidazol-2-one]",< 50
9,"CCn1cc(-c2nc3c(N4CCC(n5c(=O)[nH]c6ccccc65)CC4)ncnc3n2C)cn1 [Compound 146, 1-{1-[8-(1-Ethyl-1H-pyrazol-4-yl)-9-methyl-9H-purin-6-yl]piperidin-4-yl}-1,3-dihydro-2H-benzimidazol-2-one]",< 50
10,"Cn1c(C(=O)N[C@H]2CC[C@H](O)CC2)nc2c(N3CCC(n4c(=O)[nH]c5ncccc54)CC3)ncnc21 [Compound 329, N-(trans-4-hydroxycyclohexyl)-9-methyl-6-[4-(2-oxo-2,3-dihydro-1H-imidazo[4,5-b]pyridin-1-yl)piperidin-1-yl]-9H-purine-8-carboxamide]",< 50
11,"COC(=O)c1nc2c(N3CCC(n4c(=O)[nH]c5ccccc54)CC3)ncnc2n1C [Compound 78, Methyl 9-methyl-6-[4-(2-oxo-2,3-dihydro-1H-benzimidazol-1-yl)piperidin-1-yl]-9H-purine-8-carboxylate]",500 to 1500
12,"Cn1c(C(=O)NCC2CCOCC2)nc2c(N3CCC4(CC3)C(=O)Nc3ccccc34)ncnc21 [Compound 77, 9-methyl-6-(2-oxo-1,2-dihydro-1′H-spiro[indole-3,4′-piperidin]-1′-yl)-N-(tetrahydro-2H-pyran-4-ylmethyl)-9H-purine-8-carboxamide]",50 to 250
13,"Cn1c(-n2cnc(Br)c2)nc2c(N3CCC(n4c(=O)[nH]c5ccccc54)CC3)ncnc21 [Compound 153, 1-{1-[8-(4-bromo-1H-imidazol-1-yl)-9-methyl-9H-purin-6-yl]piperidin-4-yl}-1,3-dihydro-2H-benzimidazol-2-one]",50 to 250
14,"Cn1cc(-c2nc3c(N4CCN(c5cccc(OCC(=O)N6CCCCCC6)c5)CC4)ncnc3n2C)cn1 [Compound 359, 6-(4-{3-[(2-azepan-1-yl-2-oxoethyl)oxy]phenyl}piperazin-1-yl)-9-methyl-8-(1-methyl-1H-pyrazol-4-yl)-9H-purine]",250 to 500
15,"Cn1c(-c2cnco2)nc2c(N3CCC(n4c(=O)[nH]c5ccccc54)CC3)ncnc21 [Compound 135, 1-{1-[9-methyl-8-(1,3-oxazol-5-yl)-9H-purin-6-yl]piperidin-4-yl}-1,3-dihydro-2H-benzimidazol-2-one]",50 to 250
16,"Cn1cc(-c2nc3c(N4CCN(S(=O)(=O)c5ccc(F)cc5)CC4)ncnc3n2C)cn1 [Compound 372, 6-{4-[(4-fluorophenyl)sulfonyl]piperazin-1-yl}-9-methyl-8-(1-methyl-1H-pyrazol-4-yl)-9H-purine]",500 to 1500
17,"CCCCCCNC(=O)c1nc2c(N3CCC4(CC3)C(=O)Nc3ccccc34)ncnc2n1C [Compound 37, N-hexyl-9-methyl-6-(2-oxo-1,2-dihydro-1′H-spiro[indole-3,4′-piperidin]-1′-yl)-9H-purine-8-carboxamide]",500 to 1500

row,SMILES,IC50 [nM]
1,"Cn1cc(-c2nc3c(N4CCN(S(=O)(=O)c5ccc(Cl)cc5)CC4)ncnc3n2C)cn1 [Compound 374, 6-{4-[(4-chlorophenyl)sulfonyl]piperazin-1-yl)-9-methyl-8-(1-methyl-1H-pyrazol-4-yl)-9H-purine]",500 to 1500
2,"CCn1c(C(=O)NC2COC2)nc2c(N3CCC(n4c(=O)[nH]c5ccccc54)CC3)ncnc21 [Compound 208, 9-ethyl-N-oxetan-3-yl-6-[4-(2-oxo-2,3-dihydro-1H-benzimidazol-1-yl)piperidin-1-yl]-9H-purine-8-carboxamide]",< 50
3,"CCCCc1nc2c(N3CCC(n4c(=O)[nH]c5ccccc54)CC3)ncnc2n1C [Compound 93, 1-[1-(8-butyl-9-methyl-9H-purin-6-yl)piperidin-4-yl]-1,3-dihydro-2H-benzimidazol-2-one]",500 to 1500
4,"CCn1c(-c2cnn(C)c2C)nc2c(N3CCC4(CC3)C(=O)Nc3ccccc34)ncnc21 [Compound 261, 1′-[8-(1,5-dimethyl-1H-pyrazol-4-yl)-9-ethyl-9H-purin-6-yl]spiro[indole-3,4′-piperidin]-2(1H)-one]",< 50
5,"CC(C)c1nnc(-c2nc3c(N4CCC(n5c(=O)[nH]c6ccccc65)CC4)ncnc3n2C)o1 [Compound 122, 1-(1-{9-methyl-8-[5-(1-methylethyl)-1,3,4-oxadiazol-2-yl]-9H-purin-6-yl}piperidin-4-yl)-1,3-dihydro-2H-benzimidazol-2-one]",< 50
6,"CCn1cc(-c2nc3c(N4CCC(c5c[nH]c6ccccc56)CC4)ncnc3n2C)cn1 [Compound 366, 8-(1-ethyl-1H-pyrazol-4-yl)-6-[4-(1H-indol-3-yl)piperidin-1-yl]-9-methyl-9H-purine]",250 to 500
7,"Cn1c(C(=O)NCC2CC2)nc2c(N3CCC(C#N)(c4ccccc4)CC3)ncnc21 [Compound 275, 6-(4-cyano-4-phenylpiperidin-1-yl)-N-(cyclopropylmethyl)-9-methyl-9H-purine-8-carboxamide]",50 to 250
8,"Cn1c(C(=O)NCC2CC2)nc2c(N3CCC4(CC3)C(=O)Cc3ccccc34)ncnc21 [Compound 120, N-(cyclopropylmethyl)-9-methyl-6-(2-oxo-2,3-dihydro-1′H-spiro[indene-1,4′-piperidin]-1′-yl)-9H-purine-8-carboxamide]",50 to 250
9,"Cc1[nH]ncc1-c1nc2c(N3CCC(n4c(=O)[nH]c5ncccc54)CC3)ncnc2n1C [Compound 394, 1-{1-[9-methyl-8-(5-methyl-1H-pyrazol-4-yl)-9H-purin-6-yl]piperidin-4-yl}-1,3-dihydro-2H-imidazo[4,5-b]pyridin-2-one]",< 50
10,"CCn1c(C(=O)N[C@H]2CC[C@H](O)CC2)nc2c(N3CCC(n4c(=O)[nH]c5ncccc54)CC3)ncnc21 [Compound 328, 9-ethyl-N-(trans-4-hydroxycyclohexyl)-6-[4-(2-oxo-2,3-dihydro-1H-imidazo[4,5-b]pyridin-1-yl)piperidin-1-yl]-9H-purine-8-carboxamide]",< 50
11,"CC(C)CNC(=O)c1nc2c(N3CCC(n4c(=O)[nH]c5ccccc54)CC3)ncnc2n1C1CC1 [Compound 173, 9-cyclopropyl-N-(2-methylpropyl)-6-[4-(2-oxo-2,3-dihydro-1H-benzimidazol-1-yl)piperidin-1-yl]-9H-purine-8-carboxamide]",250 to 500
12,"Cn1c(C(=O)NCC2CC2)nc2c(N3CCC4(CC3)C(=O)Nc3ccccc34)ncnc21 [Compound 6, N-(Cyclopropylmethyl)-9-methyl-6-(2-oxo-1,2-dihydro-1′H-spiro[indole-3,4′-piperidin]-1′-yl)-9H-purine-8-carboxamide]",50 to 250
13,"Cc1ccccc1CNC(=O)c1nc2c(N3CCC4(CC3)C(=O)Nc3ccccc34)ncnc2n1C [Compound 27, 9-methyl-N-[(2-methylphenyl)methyl]-6-(2-oxo-1,2-dihydro-1′H-spiro[indole-3,4′-piperidin]-1′-yl)-9H-purine-8-carboxamide]",500 to 1500
14,"CC(CNC(=O)c1nc2c(N3CCC(n4c(=O)[nH]c5ccccc54)CC3)ncnc2n1C)c1ccccc1 (stereo not drawn) [Compound 61, 9-methyl-6-[4-(2-oxo-2,3-dihydro-1H-benzimidazol-1-yl)piperidin-1-yl]-N-(2-phenylpropyl)-9H-purine-8-carboxamide]",250 to 500
15,"Cn1c(C(=O)NCC2CCC2)nc2c(N3CCC4(CC3)C(=O)Nc3ccccc34)ncnc21 [Compound 89, N-(cyclobutylmethyl)-9-methyl-6-(2-oxo-1,2-dihydro-1′H-spiro[indole-3,4′-piperidin]-1′-yl)-9H-purine-8-carboxamide]",50 to 250
16,"Cn1c(C(=O)NC2CCOCC2)nc2c(N3CCC4(CC3)C(=O)Nc3ccccc34)ncnc21 [Compound 86, 9-methyl-6-(2-oxo-1,2-dihydro-1′H-spiro[indole-3,4′-piperidin]-1′-yl)-N-(tetrahydro-2H-pyran-4-yl)-9H-purine-8-carboxamide]",50 to 250
